The values below come from patent US8940798B2, “Compounds useful for treating and/or preventing disease-associated bone loss” (Centre National de al Recherche Scientifique (CNRS), priority 2011, dated 2015).

The structures appear in SMILES notation.

One experiment deals with T1, Dock5-DHR2 (Mus musculus, UniProt B2RY04).
T1 construct: Dock5 DHR2 domain (aminoacids E1119 to L1667) was cloned into pEGFP (Clontech) or myc tagged in pRs426Met (21); expressed in transfected cells; host or cells: HEK-293T cells
Briefly: Yeast exchange assay screening for Dock5 inhibitors. The following applies: screen of 2,640 compounds at 100 μM, 1% DMSO. Type of experiment: cell-based. An excerpt:
FIGS. 5A-5H: Inhibition of bone resorption by an inhibitor of Rac1 activation by Dock5. (FIG. 5A) Principle of the yeast exchange assay used to identify inhibitors of Dock5 exchange activity. Wild type Rac1 is fused to LexA DNA binding domain (LexA) and its effector Kinectin (Kin) to GAL4 activation domain (GAD). Expression of Dock5-DHR2 activates Rac1, which binds to kinectin, leading to the expression of his3 and then yeast […] for histidine. Inhibitors of Dock5-DHR2 revert Rac1 activation. (FIG. 5B) Growth curves of yeasts expressing Rac1 and Kinectin with (open triangles) and without (dots) Dock5-DHR2, in medium complemented (plain lines) or not (dotted lines) with histidine. (FIG. 5C) Structure of N-(3,5-dichlorophenyl)benzensulfonamide (C21). (FIG. 5D) Western blots showing total and GTPbound Rac1 (upper panels) and GFP and GFP-fused Dock5-DHR2 in extracts of 293T cells treated for 1 hour with the indicated concentrations of C21 in the presence of 1% DMSO. (FIG. 5E) Western blots showing total and GTP-bound Rac1 (upper panels) and GFP and GFP-fused TrioN in extracts of 293T cells treated as in FIG. 5D. (FIG. 5F) Number of OCs (OC) after a 24-hour incubation with the indicated concentrations of C21, expressed as a % of DMSO control (0 μM C21). […] (FIG. 5G) CTx concentration in the medium of OCs on bone in the absence (O) or presence of 25 μM C21. […]

The subject of another experiment is C57B1/6 mice. Briefly: Ovariectomy-induced bone loss model in C57B1/6 mice. In kind it is in vivo, mouse. As to conditions: 5 days per week for 28 days. An excerpt: After menopause, a decrease in bone density due to an increase in bone resorption, leading to osteoporosis, is observed. The decrease in estrogen secretion causes i) an increase in the osteoclast level due to the decrease in secretion of OPG, a RANKL inhibitor, by the osteoblasts and ii) an increase in the lifetime of the osteoclasts due to a decrease in the production of FasL, a promoter of apoptosis, by these cells. The ovariectomy model in the mouse is classically used as a model for this physiological disturbance (see FIG. 15).
Protocol experiment 1: 8 C57B1/6 mice underwent ovariectomy (OVX) and 4 mice were operated on without ablation of the ovaries (SHAM). After this operation, 4 OVX mice received the C21 compound (test group), 5 mg/d/kg, 5 days per week for 28 days, as a retro-orbital sinus injection, and the other 4 OVX mice (control group) and the SHAM group received PBS.
Protocol experiment 2: 16 C57B1/6 mice underwent ovariectomy (OVX) and 15 mice were operated on without ablation of the ovaries (SHAM). After this operation, 8 OVX mice received the C21 compound (test group), 15 mg/d/kg solubilized in 100 μl of 5% EtOH and 4% solutol, 5 days per week for 28 days, as an intraperitoneal injection, and the other 8 OVX mice (control group) and the SHAM group received 100 μl of 5% ethanol/4% solutol vehicle solution. […]

T1 sequence (B2RY04 1119-1667): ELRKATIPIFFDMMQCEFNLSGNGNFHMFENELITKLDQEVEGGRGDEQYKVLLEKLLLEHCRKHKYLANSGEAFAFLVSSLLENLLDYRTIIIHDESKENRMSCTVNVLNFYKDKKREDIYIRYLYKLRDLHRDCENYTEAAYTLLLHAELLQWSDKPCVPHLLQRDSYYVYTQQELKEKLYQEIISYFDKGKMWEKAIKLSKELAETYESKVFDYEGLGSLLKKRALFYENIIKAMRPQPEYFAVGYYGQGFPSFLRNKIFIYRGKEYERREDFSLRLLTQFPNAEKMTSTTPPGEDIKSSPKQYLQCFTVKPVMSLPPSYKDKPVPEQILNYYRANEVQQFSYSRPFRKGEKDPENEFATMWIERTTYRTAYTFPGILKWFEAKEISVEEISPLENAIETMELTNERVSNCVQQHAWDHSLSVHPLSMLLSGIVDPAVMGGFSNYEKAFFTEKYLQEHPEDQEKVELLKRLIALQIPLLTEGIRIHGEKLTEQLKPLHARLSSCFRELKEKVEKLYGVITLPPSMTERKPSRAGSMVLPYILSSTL

For the compound `O=S(=O)(Nc1cc(Cl)cc(Cl)c1)c1ccccc1` [C21, N-(3,5-dichlorophenyl)benzenesulfonamide], the “Inhibition of growth of Dock5 DHR2-expressing yeasts in Histidine deprived medium without affecting growth in Histidine complemented medium” value at Dock5-DHR2 is “identified”. Besides, the “Bone mass (BV/TV, right distal femur, micro-tomography) of mice having undergone ovariectomy” value in the experiment on C57B1/6 mice (experiment 1, 5 mg/d/kg, retro-orbital sinus injection) is “not reduced”. In the experiment on C57B1/6 mice (experiment 2, 15 mg/d/kg, intraperitoneal injection), the “Bone mass of OVX animals compared with SHAM animals” value was “not significantly different”.
